Assay results reported in US7595327B2, “Beta-sulfonamide hydroxamic acid inhibitors of tace/matrix metalloproteinase” (priority 2005, dated 2009).
Counter-ions that a name gives are not always drawn.

How the values were obtained:
[1] = biological target: T1, TACE (catalytic domain of the recombinant TACE protein) (Homo sapiens, UniProt P78536); experiment: TACE FRET assay using TACE Cat; format: biochemical; conditions: FRET, pro-TNF-α substrate peptide; read-out: TACE IC50
T1 construct: The catalytic domain of the recombinant TACE protein was expressed and purified; made in house
T1 sequence (P78536 223-474 limits assumed): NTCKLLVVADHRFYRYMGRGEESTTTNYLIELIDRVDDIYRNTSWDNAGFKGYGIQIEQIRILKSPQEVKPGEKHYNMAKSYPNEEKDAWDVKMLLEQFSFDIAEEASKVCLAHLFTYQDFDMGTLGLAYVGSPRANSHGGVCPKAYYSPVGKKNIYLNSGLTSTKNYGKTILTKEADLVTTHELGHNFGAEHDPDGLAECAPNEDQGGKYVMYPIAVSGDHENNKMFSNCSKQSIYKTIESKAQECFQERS
Protocol: The procedure is essentially as described in Jin, G. et al., Analytical Biochemistry (2002) 302, 269-275, incorporated by reference herein in its entirety. […] K is the IC50. Generally, n and B are floated, noting that n (hill slope) should be close to 1 and B (background offset) to 0.
Pro-TNF-α substrate peptide Abz-[…]-Dpa (AnaSpec, San Jose, Calif., WARC-1) was prepared as a 2 mM stock solution in the TACE assay buffer (50 mM Tris-HCI, pH 7.4, 25 mM NaCl, 4% Glycerol, 0.005% Brij 35). The catalytic domain of the recombinant TACE protein was expressed and purified. The TACE protein (1 ug/ml) was pretreated with the inhibitors at various concentrations for 10 min at room temperature. The reaction was initiated by the addition of the substrate peptide. The increase in fluorescence was monitored at an Excitation of 320 nm and an Emission of 420 nm over a period of 10 min. The initial rate (slope) of the reaction was determined using a fluorescence plate reader (Molecular Devices, Spectra Max Gemini XS).

[2] = biological target: T2, recombinant human MMP-2 (Homo sapiens, UniProt P08253); experiment: In-vitro fluorescence assay of MMP-2 activity; format: biochemical
T2 sequence (P08253 110-660): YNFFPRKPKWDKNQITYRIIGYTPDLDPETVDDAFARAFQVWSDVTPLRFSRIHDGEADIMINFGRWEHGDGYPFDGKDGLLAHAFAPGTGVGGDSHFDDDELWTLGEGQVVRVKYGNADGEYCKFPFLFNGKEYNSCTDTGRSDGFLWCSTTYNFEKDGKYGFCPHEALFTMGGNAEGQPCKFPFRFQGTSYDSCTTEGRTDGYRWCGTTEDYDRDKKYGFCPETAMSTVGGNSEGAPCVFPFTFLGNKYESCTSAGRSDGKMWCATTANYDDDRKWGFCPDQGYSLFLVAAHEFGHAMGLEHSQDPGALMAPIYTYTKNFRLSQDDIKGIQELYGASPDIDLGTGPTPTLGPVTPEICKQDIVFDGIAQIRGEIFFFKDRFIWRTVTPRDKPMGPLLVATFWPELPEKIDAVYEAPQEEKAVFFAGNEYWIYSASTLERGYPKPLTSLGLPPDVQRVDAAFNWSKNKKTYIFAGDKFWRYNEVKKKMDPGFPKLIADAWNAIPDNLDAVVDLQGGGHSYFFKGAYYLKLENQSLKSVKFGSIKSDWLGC

[3] = biological target: MMP-13 (Homo sapiens, UniProt P45452); experiment: In-vitro fluorescence assay of MMP-13 activity; format: biochemical
Protocol: See Knight, C. […] […].
The method was essentially the same as for the determination of MMP-1 activity, described above, except that the final concentration of purified MMP in the assay was 0.5 nM, prepared by diluting with the assay buffer.

[4] = system: TNF-α secretion in Raw 264.7 cells; experiment: Cell-based assay for inhibition of TNF-α secretion in Raw cells; conditions: Mus musculus, RAW264.7, LPS 100 ng/ml, 4 hr
Protocol: The basic measurement of the assay is the percentage of inhibition of TNF-α secretion and the IC50 determination by a fitting with the model-39 of LSW data analysis tool. […] Cells are split twice a week by scraping and 1 to 10 or 20 dilutions. For testing compounds, cells are cultured to confluence and are seeded the day before the experiment in 24 well culture dishes at 0.5 to 1 million/ml well. On the next morning, the medium from the overnight culture is replaced with the fresh growth medium. The compounds are added at various concentration at the 0.2% of final DMSO concentrations (10 μl of a 20% DMSO solution containing testing compounds is added to each well). The cells are pre-incubated with compounds for 1 hr. LPS (Sigma, L2262) is added to cells at a final concentration of 100 ng/ml (10 μl of a […] LPS solution freshly diluted from a 1 mg/ml LPS stock solution in PBS is added to each well) and cells are further incubated for 4 hr at 37° C. 1 ml of the supernatant was collected, cells are spun down and the supernatants are frozen at −80° C. until use. The TNF-α and other proinflammatory cytokines were detected by an ELISA assay according to the manufacturer's instructions (Biosource International, Inc., Camarillo, Calif. (For IL-1b measurement in Raw cells, one round of freeze and thaw of the cells was required).

[5] = system: LPS-induced TNF-α secretion in human whole blood; experiment: Human whole blood assay for LPS-induced TNF-α secretion; format: cell-based; conditions: Homo sapiens, LPS 100 ng/ml, read-out: TNF Secretion HWB IC50
Protocol: procedure is essentially as described in Newton, R. C., et al., (2001) Ann Rheum […]32, incorporated by reference herein in its entirety. The basic measurement of the assay is the percentage of inhibition of TNF-α secretion and the IC50 determination by a […] model-39 of LSW data analysis tool. 350 μl of fresh human blood drawn from healthy volunteers were pre-incubated with compounds for one hour at the various concentrations at 37° C. with turning generally, the final DMSO concentrations should be kept below 0.2%. At the end of cubation, LPS (Sigma, L2262) was added to the blood at 100 ng/ml and the samples were further incubated for 4 hours or overnight at 37° C. with constant rotation. At the end of the incubation period, 650 μl of serum-free medium was added to the blood samples and the samples were centrifuged at 1500 rpm for 15 minutes. 500 μl of supernate was collected and frozen at -80° C. The TNF-α and other proinflammatory cytokines were detected by ELISA assay according to the manufacturer's instruction (Biosource International, Inc., Camarillo, Calif.).

SMILES | IC50 [1] | IC50 [2] | IC50 [3] | IC50 [4] | IC50 [5]
Cc1cc(COc2ccc(S(=O)(=O)N[C@@H]3CN(C(=O)OC(C)(C)C)CCC3C(=O)NO)cc2)c2ccccc2n1 (stereo in doubt) [Example 33, (3S,4R)-4-Hydroxycarbamoyl-3-[4-(2-methyl-quinolin-4-ylmethoxy)-benzenesulfonylamino]-piperidine-1-carboxylic acid tert-butyl ester] | 0.7 nM | > 16700 nM | > 16700 nM | 58 nM | 4700 nM
Cc1cc(COc2ccc(S(=O)(=O)N[C@@H]3CCN(C=O)C[C@@H]3C(=O)NO)cc2)c2ccccc2n1 [Example 29, (3S,4R)-1-Formyl-4-[4-(2-methyl-quinolin-4-ylmethoxy)-benzenesulfonylamino]-piperidine-3-carboxylic acid hydroxyamide] | 0.8 nM | > 16700 nM | 13200 nM | 7 nM | 86 nM
Cc1cc(COc2ccc(S(=O)(=O)N[C@H]3CCN(C(=O)NC(C)(C)C)C[C@H]3C(=O)NO)cc2)c2ccccc2n1 [Example 30, (3S,4R)-4-[4-(2-Methyl-quinolin-4-ylmethoxy)-benzenesulfonylamino]-piperidine-1,3-dicarboxylic acid 1-tert-butylamide 3-hydroxyamide] | < 0.6 nM | > 10000 nM | 9090 nM | 30 nM | 250 nM
Cc1cc(COc2ccc(S(=O)(=O)N[C@@H]3CCOC[C@]3(C)C(=O)NO)cc2)c2ccccc2n1 [Example 44, (3R,4R)-N-hydroxy-3-methyl-4-[({4-[(2-methylquinolin-4-yl)methoxy]phenyl}sulfonyl)amino]tetrahydro-2H-pyran-3-carboxamide] | 0.5 nM | > 16700 nM | > 16700 nM | 1670 nM | 46000 nM
Cc1cc(COc2ccc(S(=O)(=O)N[C@@H]3CCOC[C@@]3(C)C(=O)NO)cc2)c2ccccc2n1 [Example 45, (3S,4R)-N-hydroxy-3-methyl-4-[({4-[(2-methylquinolin-4-yl)methoxy]phenyl}sulfonyl)amino]tetrahydro-2H-pyran-3-carboxamide] | 6.2 nM | > 16700 nM | > 16700 nM | 1920 nM | > 50000 nM
Cc1cc(COc2ccc(S(=O)(=O)N[C@@H]3CCN(C=O)C[C@]3(O)C(=O)NO)cc2)c2ccccc2n1 [Example 46, 4-({4-[({(3R,4R)-1-Formyl-3-hydroxy-3-[(hydroxyamino)carbonyl]piperidin-4-yl}amino)sulfonyl]phenoxy}methyl)-2-methylquinolinium trifluoroacetic acid salt] | 1.4 nM | > 16700 nM | > 16700 nM | 160 nM | 2900 nM
CC(=O)N1CC[C@@H](NS(=O)(=O)c2ccc(OCc3cc(C)nc4ccccc34)cc2)[C@@](C)(C(=O)NO)C1 [Example 47, (3S,4R)-1-acetyl-N-hydroxy-3-methyl-4-[({4-[(2-methylquinolin-4-yl)methoxy]phenyl}sulfonyl)amino]piperidine-3-carboxamide] | 6.4 nM | > 16700 nM | > 16700 nM | > 1000 nM | > 50000 nM

Other lines, results leading:

IC50 [1] | IC50 [2] | IC50 [3] | IC50 [4] | IC50 [5] | SMILES
211 nM | > 16700 nM | > 16700 nM | > 1000 nM | > 50000 nM | Cc1cc(COc2ccc(S(=O)(=O)N[C@@H]3CCN(C(C)C)C[C@]3(C)C(=O)NO)cc2)c2ccccc2n1 [Example 48, (3S,4R)-N-hydroxy-1-isopropyl-3-methyl-4-[({4-[(2-methylquinolin-4-yl)methoxy]phenyl}sulfonyl)amino]piperidine-3-carboxamide]
19 nM | > 16700 nM | > 16700 nM | > 1000 nM | > 50000 nM | C#CCN1CC[C@@H](NS(=O)(=O)c2ccc(OCc3cc(C)nc4ccccc34)cc2)[C@@](C)(C(=O)NO)C1 [Example 49, (3S,4R)-N-hydroxy-3-methyl-4-[({4-[(2-methylquinolin-4-yl)methoxy]phenyl}sulfonyl)amino]-1-prop-2-yn-1-ylpiperidine-3-carboxamide]
3.7 nM | > 16700 nM | > 16700 nM | > 1000 nM | 22000 nM | CNC(=O)N1CC[C@@H](NS(=O)(=O)c2ccc(OCc3cc(C)nc4ccccc34)cc2)[C@@](C)(C(=O)NO)C1 [Example 50]
< 0.6 nM | > 16700 nM | > 10000 nM | > 1000 nM | 30000 nM | Cc1cc(COc2ccc(S(=O)(=O)N[C@@H]3CCN(C=O)C[C@]3(C)C(=O)NO)cc2)c2ccccc2n1 [Example 51, (3S,4R)-1-formyl-N-hydroxy-3-methyl-4-[({4-[(2-methylquinolin-4-yl)methoxy]phenyl}sulfonyl)amino]piperidine-3-carboxamide]
2.4 nM | > 16700 nM | > 10000 nM | 762 nM | 37000 nM | Cc1cc(COc2ccc(S(=O)(=O)N[C@@H]3CCN(S(=O)(=O)C(C)C)C[C@]3(C)C(=O)NO)cc2)c2ccccc2n1 [Example 52, (3S,4R)-N-hydroxy-1-(isopropylsulfonyl)-3-methyl-4-[({4-[(2-methylquinolin-4-yl)methoxy]phenyl}sulfonyl)amino]piperidine-3-carboxamide]
0.4 nM | > 16700 nM | > 16700 nM | 82 nM | 3600 nM | Cc1cc(COc2ccc(S(=O)(=O)N[C@@H]3CCC[C@]3(O)C(=O)NO)cc2)c2ccccc2n1 [Example 53, (1R,2R)-N,1-dihydroxy-2-[({4-[(2-methylquinolin-4-yl)methoxy]phenyl}sulfonyl)amino]cyclopentanecarboxamide]
< 0.6 nM | > 16700 nM | > 10000 nM | 19 nM | 2300 nM | Cc1cc(COc2ccc(S(=O)(=O)N[C@@H]3CCC[C@]3(F)C(=O)NO)cc2)c2ccccc2n1 [Example 54, (1R,2R)-1-fluoro-N-hydroxy-2-[((4-[(2-methylquinolin-4-yl)methoxy]phenyl}sulfonyl)amino]cyclopentanecarboxamide]
